Measurements from paper PMC4615133, “Click chemistry armed enzyme-linked immunosorbent assay to measure palmitoylation by hedgehog acyltransferase” (Analytical Biochemistry, 2015).

Molecular target: T1, hedgehog acyltransferase (Hhat) (Homo sapiens, UniProt Q5VTY9)
T1 construct: Hhat-3C-FLAG-His8 (cDNA base pairs 4 to 1479), DDM-solubilized P100 membrane fraction from HEK293a cells
Assay: stopped click-ELISA kinetics, apparent Km at […] Shh([…])
Assay type: cell-based

T1 sequence (Q5VTY9 2-493): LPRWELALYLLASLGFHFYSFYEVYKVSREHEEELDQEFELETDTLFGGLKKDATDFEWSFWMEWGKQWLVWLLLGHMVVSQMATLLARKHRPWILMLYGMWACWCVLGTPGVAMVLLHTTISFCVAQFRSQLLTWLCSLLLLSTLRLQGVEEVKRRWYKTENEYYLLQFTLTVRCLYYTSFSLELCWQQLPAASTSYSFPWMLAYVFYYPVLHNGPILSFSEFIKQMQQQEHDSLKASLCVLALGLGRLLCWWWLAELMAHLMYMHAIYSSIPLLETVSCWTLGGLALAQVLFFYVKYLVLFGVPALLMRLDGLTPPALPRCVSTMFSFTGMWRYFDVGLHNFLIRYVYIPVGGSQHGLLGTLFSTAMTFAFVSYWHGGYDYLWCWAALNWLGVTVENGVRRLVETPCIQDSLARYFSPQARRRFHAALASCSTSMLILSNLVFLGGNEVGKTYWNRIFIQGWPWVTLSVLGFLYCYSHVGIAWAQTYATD

Km: 0.15 ± 0.05 µM
Compound: C#CCCCCCCCCCCCCC(=O)SCCNC(=O)CCNC(=O)[C@H](O)C(C)(C)COP(=O)(O)OP(=O)(O)OC[C@H]1O[C@@H](n2cnc3c(N)ncnc32)[C@H](O)[C@@H]1OP(=O)(O)O [YnC15-CoA]
